According to article PMC6222307, “Phenanthrenes from Juncus Compressus Jacq. with Promising Antiproliferative and Anti-HSV-2 Activities” (Molecules : A Journal of Synthetic Chemistry and Natural …, 2018):
Read-outs that look alike come from different tables or passages of the source.

What was measured:
MCF-7 cells [1] = test system: MCF-7 cells; set-up: method as in PMID 23979834; conditions: read-out: cytotoxic activity; cited from earlier work
HeLa cells [2] = test system: HeLa cells; set-up: method as in PMID 23979834; conditions: read-out: cytotoxic activity; cited from earlier work
SiHa cells = assay: MTT antiproliferative assay, SiHa; assay type: cell-based, human; conditions: 72 h; for inhibition at 10 µM / inhibition at 30 µM: Homo sapiens, read-out: Growth Inhibition (%) ± SEM
Description: (§1) The isolated phenanthrenes (Compounds 1–9) were tested for their antiproliferative activity against three human tumor cell lines (HeLa and SiHa (cervix adenocarcinoma) and A2780 (ovarian carcinoma)) using the 3-(4,5-dimethylthiazol-2-yl)-2,5-diphenyltetrazolium bromide (MTT) test with cisplatin as a positive control (Table 3). […] Based on the presented results, some structure-activity relationships could be obtained. […] Compounds bearing free hydroxy groups (in case of Compound 3) exerted more pronounced action than its methyl ether (Compound 7) or its oxymethylene derivative (Compound 6). The substantial difference in the activities of the isolated dimers (Compounds 2 and 8) could be attributed to the presence of a methyl group at C-6, which is favored in the monomers, too. Both the other cell lines were substantially less sensitive. […] Similarly, none of the presented agents elicited substantial (>40%) inhibition of the cell cancer proliferation during the applied 72 h of incubation against SiHa cells at 10 μM, and therefore, IC50 values were not determined.
(§2) The antiproliferative properties of the isolated phenanthrenes were determined on a panel of human malignant cell lines isolated from cervical (HeLa and SiHa) and ovarian cancers (A2780) purchased from the European Collection of Cell Cultures (ECCAC, Salisbury, UK). Cells were cultivated in minimal essential medium supplemented with 10% fetal bovine serum, 1% non-essential amino acids and an antibiotic-antimycotic mixture. All media and supplements were obtained from Lonza Group Ltd., (Basel, Switzerland). Near-confluent cancer cells were seeded onto a 96-well microplate (5000 cells/well) and after an overnight standing, medium containing the tested compounds at 10 and 30 µM was added. After incubation for 72 h under cell culture conditions, the living cells were assayed by the addition of 20 µL of 5 mg/mL 3-(4,5-dimethylthiazol-2-yl)-2,5-diphenyltetrazolium bromide (MTT) solution. MTT was converted by intact mitochondrial enzymes and precipitated as purple crystals during a 4 h contact period. The medium was then removed and the formazan was dissolved in 100 µL of DMSO during a 60 min period of shaking at 37 °C. Finally, the reduced MTT was assayed at 545 nm using a microplate reader. […] All in vitro experiments were carried out on two microplates with five parallel wells. Stock solutions of the tested compounds (10 mM) were prepared in DMSO. […] Cisplatin (Ebewe Pharma GmbH, Unterach, Austria) was used as a reference agent.

A2780 cells = assay: MTT antiproliferative assay, A2780; assay type: cell-based, human; conditions: for inhibition at 10 µM / inhibition at 30 µM: read-out: Growth Inhibition (%) ± SEM; for IC50: read-out: Calculated IC50 Value
Description: as §1, §2

HeLa cells [3] = assay: MTT antiproliferative assay, HeLa; assay type: cell-based, human; conditions: 72 h; for inhibition at 10 µM / inhibition at 30 µM: read-out: Growth Inhibition (%) ± SEM; for IC50: read-out: Calculated IC50 Value
Description: as §1, §2

SMMC-7721 = test system: SMMC-7721; set-up: method as in PMID 26072042; conditions: SMMC-7721, CCK-8 assay; cited from earlier work
HepG2 = test system: HepG2; set-up: method as in PMID 26072042; conditions: HepG2, CCK-8 assay; cited from earlier work
MCF-7 = test system: MCF-7; set-up: method as in PMID 26072042; conditions: MCF-7, CCK-8 assay; cited from earlier work
[4] = test system: HepG2 (liver hepatocellular carcinoma); set-up: method as in PMID 26584913; conditions: cited from earlier work
HeLa cells [5] = test system: HeLa cells; set-up: method as in PMID 26584913; conditions: cited from earlier work
HSV-2 = test system: HSV-2; set-up: method as in PMID 11463529; conditions: 6.25 µM; cited from earlier work
MCF-7 cells [6] = test system: MCF-7 cells; set-up: method as in PMID 26584913; conditions: cited from earlier work
[7] = Homo sapiens, A2780, 10 μM, 72 h, MTT
[8] = Homo sapiens, A2780, 30 μM, 72 h, MTT

COc1cccc2c1C(=O)c1c(O)c3c(c(O)c1C2=O)C[C@@](O)(C(=O)CO)C[C@@H]3O[C@H]1C[C@H](N)[C@H](O)[C@H](C)O1 [adriamycin, reference compound]
IC50 (MCF-7 cells [1]): 0.406 µM
IC50 (HeLa cells [2]): 0.539 µM

C=Cc1cc(O)cc2c1-c1ccc(OC)c(C)c1CC2 [Compound 7, 7-hydroxy-1-methyl-2-methoxy-5-vinyl-9,10-dihydrophenanthrene]
inhibition at 10 µM (SiHa cells; 10 μM, MTT): 14.2 ± 0.98%
inhibition at 30 µM (SiHa cells; 30 μM, MTT): 29.5 ± 3.36%
inhibition at 10 µM (A2780 cells; [7]): < 10%
inhibition at 30 µM (A2780 cells; [8]): 63.2 ± 2.54%
inhibition at 10 µM (HeLa cells [3]; Homo sapiens, 10 μM, MTT): 45.4 ± 1.57%
inhibition at 30 µM (HeLa cells [3]; Homo sapiens, 30 μM, MTT): 92.36 ± 0.23%
IC50 (HeLa cells [3]; Homo sapiens, MTT): 10.7 µM

CC(=O)O[C@H]1C(=O)[C@@]2(C)[C@H]([C@H](OC(=O)c3ccccc3)[C@]3(O)C[C@H](OC(=O)[C@H](O)[C@@H](NC(=O)c4ccccc4)c4ccccc4)C(C)=C1C3(C)C)[C@]1(OC(C)=O)CO[C@@H]1C[C@@H]2O [paclitaxel, reference compound]
IC50 (SMMC-7721): 0.09 µM
IC50 (HepG2): 36.8 µM
IC50 (MCF-7): 28.6 µM

C=Cc1c(C)c(O)cc2c1-c1ccc(OC)c(C)c1CC2 [Compound 1, compressin A]
inhibition at 10 µM (SiHa cells; 10 μM, MTT): < 10%
inhibition at 30 µM (SiHa cells; 30 μM, MTT): 38.6 ± 0.78%
inhibition at 10 µM (A2780 cells; [7]): 47.6 ± 1.58%
inhibition at 30 µM (A2780 cells; [8]): 73 ± 0.47%
IC50 (A2780 cells; Homo sapiens, A2780, 72 h, MTT): 13.2 µM
inhibition at 10 µM (HeLa cells [3]; Homo sapiens, 10 μM, MTT): 41.7 ± 1.1%
inhibition at 30 µM (HeLa cells [3]; Homo sapiens, 30 μM, MTT): 93.73 ± 0.36%
IC50 (HeLa cells [3]; Homo sapiens, MTT): 11.3 µM

C=Cc1cc(O)cc2ccc3c(C)c(O)ccc3c12 [Compound 9, dehydroeffusol]
inhibition at 10 µM (SiHa cells): < 10%
inhibition at 30 µM (SiHa cells): 28.7 ± 2.01%
inhibition at 10 µM (A2780 cells; Homo sapiens, A2780, 72 h): < 10%
inhibition at 30 µM (A2780 cells; Homo sapiens, A2780, 72 h): 57.3 ± 2.58%
IC50 (HeLa cells [3]; Homo sapiens): 7.75 µM
inhibition at 10 µM (HeLa cells [3]; Homo sapiens): 75.2 ± 2.48%
inhibition at 30 µM (HeLa cells [3]; Homo sapiens): 96.5 ± 0.32%

Cc1c(O)ccc2c1ccc1cc(O)cc(C=O)c12 [Dehydroeffusal]
IC50 [4]: 12.4 µM
IC50 (HeLa cells [5]): 13.1 µM

N.N.[Cl][Pt][Cl] [Cisplatin, reference compound]
Growth Inhibition (%) ± SEM (SiHa cells; 10 μM, MTT): 88.64 ± 0.50%
Growth Inhibition (%) ± SEM (SiHa cells; 30 μM, MTT): 90.18 ± 7.78%
IC50 (SiHa cells; MTT, read-out: Calculated IC50 Value): 7.84 µM
Growth Inhibition (%) ± SEM (A2780 cells; A2780, 10 μM, 72 h, MTT): 83.57 ± 1.21%
Growth Inhibition (%) ± SEM (A2780 cells; A2780, 30 μM, 72 h, MTT): 95.02 ± 0.28%
IC50 (A2780 cells; A2780, 72 h, MTT): 1.3 µM
Growth Inhibition (%) ± SEM (HeLa cells [3]; 10 μM, MTT): 42.61 ± 2.33%
Growth Inhibition (%) ± SEM (HeLa cells [3]; 30 μM, MTT): 99.93 ± 0.26%
IC50 (HeLa cells [3]; MTT): 12.4 µM

Nc1nc2c(ncn2COCCO)c(=O)[nH]1 [acyclovir]
reduction of HSV-2 yield (HSV-2): 1–5.06 log10

COC(C)c1cc(O)cc2c1-c1ccc(O)c(C)c1CC2 (stereo not drawn) [Compound 4, effususol]
inhibition at 10 µM (SiHa cells; 10 μM, MTT): < 10%
inhibition at 30 µM (SiHa cells; 30 μM, MTT): 14.2 ± 2.75%
inhibition at 10 µM (A2780 cells; [7]): 18.3 ± 0.42%
inhibition at 30 µM (A2780 cells; [8]): 72 ± 1.06%
inhibition at 10 µM (HeLa cells [3]; Homo sapiens, 10 μM, MTT): < 10%
inhibition at 30 µM (HeLa cells [3]; Homo sapiens, 30 μM, MTT): 30.4 ± 1.91%

C=Cc1cc(O)cc2c1-c1cc(-c3c(O)cc(C=C)c4c3ccc3c(C)c(O)ccc34)c(O)c(C)c1CC2 [effususin B]
IC50 (SMMC-7721): 13.6 µM
IC50 (HepG2): 12.9 µM
IC50 (MCF-7): 12.5 µM

C=Cc1cc(CO)cc2c1-c1ccc(O)c(C)c1CC2 [Compound 6, 2-hydroxy-1-methyl-7-oxymethylene-5-vinyl-9,10-dihydrophenanthrene]
inhibition at 10 µM (SiHa cells; 10 μM, MTT): < 10%
inhibition at 30 µM (SiHa cells; 30 μM, MTT): 10.2 ± 1.47%
inhibition at 10 µM (A2780 cells; [7]): < 10%
inhibition at 30 µM (A2780 cells; [8]): < 10%
inhibition at 10 µM (HeLa cells [3]; Homo sapiens, 10 μM, MTT): 96.8 ± 0.28%
inhibition at 30 µM (HeLa cells [3]; Homo sapiens, 30 μM, MTT): 98.77 ± 0.24%
IC50 (HeLa cells [3]; Homo sapiens, MTT): 4.17 µM

COC(C)c1cc(O)cc2ccc3c(C)c(O)ccc3c12 (stereo not drawn) [5-(1-methoxyethyl)-1-methyl-phenanthren-2,7-diol]
IC50 (MCF-7 cells [6]): 10.9 µM

Cc1c(O)ccc2c1CCc1cc(O)cc(C=O)c1-2 [2,7-dihydroxy-1-methyl-5-aldehyde-9,10-dihydrophenanthrene]
IC50 (MCF-7 cells [1]): 9.17 µM
IC50 (HeLa cells [2]): 19.6 µM

C=Cc1c(C)c(O)cc2c1-c1cc(-c3cc4c(c(C)c3O)CCc3cc(O)c(C)c(C=C)c3-4)c(O)c(C)c1CC2 [Compound 2, compressin B]
inhibition at 10 µM (SiHa cells; 10 μM, MTT): < 10%
inhibition at 30 µM (SiHa cells; 30 μM, MTT): 32.8 ± 0.88%
inhibition at 10 µM (A2780 cells; [7]): < 10%
inhibition at 30 µM (A2780 cells; [8]): 64.8 ± 1.95%
inhibition at 10 µM (HeLa cells [3]; Homo sapiens, 10 μM, MTT): 92.03 ± 0.44%
inhibition at 30 µM (HeLa cells [3]; Homo sapiens, 30 μM, MTT): 92.38 ± 0.15%
IC50 (HeLa cells [3]; Homo sapiens, MTT): 1.86 µM

C=Cc1cc(O)cc2c1-c1cc(-c3cc4c(c(C)c3O)CCc3cc(O)cc(C=C)c3-4)c(O)c(C)c1CC2 [Compound 8, effususin A]
inhibition at 10 µM (SiHa cells; 10 μM, MTT): < 10%
inhibition at 30 µM (SiHa cells; 30 μM, MTT): 14.4 ± 1.48%
inhibition at 10 µM (A2780 cells; [7]): < 10%
inhibition at 30 µM (A2780 cells; [8]): 72.7 ± 1.82%
inhibition at 10 µM (HeLa cells [3]; Homo sapiens, 10 μM, MTT): < 10%
inhibition at 30 µM (HeLa cells [3]; Homo sapiens, 30 μM, MTT): 10.4 ± 0.47%

C=Cc1cc(O)cc2c1-c1ccc(O)c(C)c1CC2 [Compound 3, effusol]
inhibition at 10 µM (SiHa cells; 10 μM, MTT): < 10%
inhibition at 30 µM (SiHa cells; 30 μM, MTT): < 10%
inhibition at 10 µM (A2780 cells; [7]): < 10%
inhibition at 30 µM (A2780 cells; [8]): 50.5 ± 1.59%
inhibition at 10 µM (HeLa cells [3]; Homo sapiens, 10 μM, MTT): 96.37 ± 0.28%
inhibition at 30 µM (HeLa cells [3]; Homo sapiens, 30 μM, MTT): 97.77 ± 0.27%
IC50 (HeLa cells [3]; Homo sapiens, MTT): 3.68 µM
